One block for each compound: values may come before it. Active and inactive are the calls of the source.
Assays:
[1] = target: Melanocortin receptor 4 (Homo sapiens, UniProt P32245); assay type: functional, cell-based;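 note: Cell-based assay with luminescence read-out, confirmatory dose-response testing for agonist activity of biased ligands at MC4R; human U2OS cells with tagged receptor and beta-arrestin; potency of agonists that increase receptor coupling to beta-arrestin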
[2] = system: CHO-K1; assay: (§1) Counterscreen for antagonists of the orexin 1 receptor (OX1R; HCRTR1): Homogeneous time resolved fluorescence (HTRF)-based cell-based dose response assay to identify antagonists of the parental CHO-K1 cell line. [Related pubchem assays (depositor defined):AID434989, AID435008, AID463079, AID485270, AID492963, AID492964, AID492965, AID493232, AID504699, AID504701]; assay type: functional; conditions: Cricetulus griseus
[3] = as §1, with “Fluorescence-based” for “Homogeneous time resolved fluorescence (HTRF)-based”, “cell-based high throughput” for “cell-based”, “CHO” for “CHO-K1”; assay type: functional
[4] = target: T1, Orexin receptor type 2 (Homo sapiens, UniProt O43614); assay: Counterscreen assay for antagonists of the orexin 1 receptor (OX1R; HCRTR1): Homogeneous Time Resolved Fluorescence (HTRF)-based cell-based dose response assay for antagonists of the orexin 2 receptor (OX2R; HCRTR2), run by assay provider.; assay type: functional
T1 sequence (O43614 whole entry): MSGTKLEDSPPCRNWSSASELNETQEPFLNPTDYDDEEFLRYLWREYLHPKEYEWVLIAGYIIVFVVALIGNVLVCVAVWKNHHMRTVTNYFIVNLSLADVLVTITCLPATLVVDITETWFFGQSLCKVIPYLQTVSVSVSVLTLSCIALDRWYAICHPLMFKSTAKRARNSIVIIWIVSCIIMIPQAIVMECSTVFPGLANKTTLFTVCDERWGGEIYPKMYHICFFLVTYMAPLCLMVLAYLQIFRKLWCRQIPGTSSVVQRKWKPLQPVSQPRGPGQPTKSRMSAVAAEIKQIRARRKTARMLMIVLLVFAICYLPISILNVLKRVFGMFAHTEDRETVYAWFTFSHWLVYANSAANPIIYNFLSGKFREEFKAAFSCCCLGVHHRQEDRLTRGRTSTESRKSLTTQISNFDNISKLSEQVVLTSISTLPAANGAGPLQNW

[5] = target: T2, Polyadenylate-binding protein 1 (Homo sapiens, UniProt P11940); assay: PABP1 MLLE–PAM2 binding inhibitor potency, dose response, biochemical, fluorescence polarization, FITC-PAM2 peptide (AID 602259); assay type: functional; conditions: read-out: IC50_Mean
[6] = target: T3, Orexin/Hypocretin receptor type 1 (Homo sapiens, UniProt O43613); assay: Homogeneous Time Resolved Fluorescence (HTRF)-based cell-based high throughput dose response assay for antagonists of the orexin 1 receptor (OX1R; HCRTR1). [Related pubchem assays (depositor defined):AID434989, AID435008, AID463079, AID485270, AID492963, AID492964, AID492965, AID493232, AID504717, AID504718]; assay type: functional
T3 sequence (O43613 whole entry): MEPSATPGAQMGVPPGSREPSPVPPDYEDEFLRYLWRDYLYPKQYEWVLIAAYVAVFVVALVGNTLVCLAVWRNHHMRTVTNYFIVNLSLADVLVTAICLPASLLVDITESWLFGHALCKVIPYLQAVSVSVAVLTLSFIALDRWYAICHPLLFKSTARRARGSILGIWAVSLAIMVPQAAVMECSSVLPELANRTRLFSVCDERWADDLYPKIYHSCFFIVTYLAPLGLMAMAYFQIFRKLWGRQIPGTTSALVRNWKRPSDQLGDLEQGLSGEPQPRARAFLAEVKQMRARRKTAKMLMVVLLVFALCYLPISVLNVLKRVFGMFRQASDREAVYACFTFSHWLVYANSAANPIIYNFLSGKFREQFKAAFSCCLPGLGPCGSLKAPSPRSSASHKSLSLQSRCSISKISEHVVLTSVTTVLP

[7] = target: T3, Orexin/Hypocretin receptor type 1; assay: Fluorescence-based cell-based high throughput dose response assay for antagonists of the orexin 1 receptor (OX1R; HCRTR1). [Related pubchem assays (depositor defined):AID434989, AID435008, AID463079, AID485270, AID492963, AID492964, AID492965, AID493232, AID504717, AID504718]; assay type: functional
[8] = target: T1, Orexin receptor type 2; assay: Counterscreen assay for antagonists of the orexin 1 receptor (OX1R; HCRTR1): Fluorescence-based cell-based dose response assay for antagonists of the orexin 2 receptor (OX2R; HCRTR2), run by assay provider.; assay type: functional
[9] = target: T2, Polyadenylate-binding protein 1; assay: PABP1 MLLE–PAM2 interaction inhibitors, dose response, miRNA deadenylation inhibitor project, biochemical, fluorescence polarization, Cy5-PAM2 peptide, secondary (AID 602260); assay type: functional; conditions: read-out: IC50_Mean
[10] = target: DNA (cytosine-5)-methyltransferase 1 (Homo sapiens, UniProt P26358); assay: DNMT1 methyltransferase inhibitors, confirmation, biochemical, fluorescent molecular beacon (AID 602386); assay type: functional
[11] = target: T4, ORF 73 (Human herpesvirus 8, UniProt O40947); assay: inhibitors of C-LANA binding to LBS DNA, dose response, biochemical, fluorescence polarization, cherry-picked samples (AID 504725); design: species or system Human gammaherpesvirus 8;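 note: fluorescence polarization of a labeled DNA duplex reporting LANA DNA binding; potency is for inhibitors that block LANA binding to the DNA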
T4 sequence (O40947 whole entry): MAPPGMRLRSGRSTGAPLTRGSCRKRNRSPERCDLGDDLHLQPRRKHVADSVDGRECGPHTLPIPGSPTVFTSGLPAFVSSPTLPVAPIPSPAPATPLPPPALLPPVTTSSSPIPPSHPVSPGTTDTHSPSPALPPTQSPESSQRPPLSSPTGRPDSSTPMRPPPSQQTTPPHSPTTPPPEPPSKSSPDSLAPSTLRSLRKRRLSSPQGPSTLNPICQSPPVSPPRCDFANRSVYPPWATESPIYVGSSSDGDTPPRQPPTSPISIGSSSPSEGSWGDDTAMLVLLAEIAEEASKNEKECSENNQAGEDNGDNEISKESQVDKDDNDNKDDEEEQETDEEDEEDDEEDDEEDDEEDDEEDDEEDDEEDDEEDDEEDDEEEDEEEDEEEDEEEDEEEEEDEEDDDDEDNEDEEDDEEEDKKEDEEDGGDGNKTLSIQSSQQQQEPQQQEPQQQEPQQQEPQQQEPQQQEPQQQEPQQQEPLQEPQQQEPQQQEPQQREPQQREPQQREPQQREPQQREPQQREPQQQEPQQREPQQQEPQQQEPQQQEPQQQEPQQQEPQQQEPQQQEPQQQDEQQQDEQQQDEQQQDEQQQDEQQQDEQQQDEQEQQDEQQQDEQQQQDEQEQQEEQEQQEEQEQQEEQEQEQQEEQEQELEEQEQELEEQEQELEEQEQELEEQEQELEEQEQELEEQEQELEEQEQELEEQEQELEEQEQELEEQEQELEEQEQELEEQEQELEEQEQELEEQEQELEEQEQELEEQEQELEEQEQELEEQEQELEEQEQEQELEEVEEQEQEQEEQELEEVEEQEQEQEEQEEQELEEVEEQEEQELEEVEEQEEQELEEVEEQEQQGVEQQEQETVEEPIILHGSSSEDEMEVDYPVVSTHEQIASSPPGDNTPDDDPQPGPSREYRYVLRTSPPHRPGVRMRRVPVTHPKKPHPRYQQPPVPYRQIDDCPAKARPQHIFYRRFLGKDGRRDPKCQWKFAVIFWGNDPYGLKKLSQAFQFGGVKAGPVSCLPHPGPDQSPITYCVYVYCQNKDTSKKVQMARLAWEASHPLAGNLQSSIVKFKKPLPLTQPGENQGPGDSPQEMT

[12] = target: T5, Voltage-gated N-type calcium channel alpha-1B subunit/Amyloid beta A4 precursor protein-binding family A member 1 (Homo sapiens, UniProt Q00975+Q02410); assay type: protein assay
[13] = target: T6, Carboxy-terminal domain RNA polymerase II polypeptide A small phosphatase 1 (Homo sapiens, UniProt Q9GZU7); assay: inhibitors of CTDSP1, concentration-response testing, biochemical assay, absorbance-based, actives from ultra-high-throughput screening (AID 540297); assay type: functional
T6 sequence (Q9GZU7 whole entry): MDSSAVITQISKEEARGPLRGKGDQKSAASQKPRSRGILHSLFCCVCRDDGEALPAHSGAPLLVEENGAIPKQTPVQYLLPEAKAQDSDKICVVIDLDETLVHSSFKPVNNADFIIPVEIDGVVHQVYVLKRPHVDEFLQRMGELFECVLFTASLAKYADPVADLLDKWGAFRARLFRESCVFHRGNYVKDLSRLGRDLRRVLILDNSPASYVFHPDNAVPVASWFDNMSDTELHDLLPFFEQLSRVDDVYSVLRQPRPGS

[14] = target: T5, Voltage-gated N-type calcium channel alpha-1B subunit/Amyloid beta A4 precursor protein-binding family A member 1; assay type: protein assay; remark: listed apart in the source
[15] = target: T7, ATP-dependent translocase ABCB1 (Homo sapiens, UniProt P08183); assay: ABCB1 efflux inhibitor potency, dose response, Jurkat-DNR cells, JC-1, flow cytometry, set 2 (AID 504569); assay type: functional; conditions: read-out: EC50_MICROM_;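 note: potency of pump inhibitors that raise cellular JC-1 green fluorescence up to the nicardipine level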
[16] = target: T7, ATP-dependent translocase ABCB1; assay: ABCG2 efflux pump inhibitor potency, dose response, Ig-MXP3 cells, JC-1, flow cytometry, set 2 (AID 504566); assay type: functional; conditions: read-out: EC50_MICROM_;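 note: flow cytometry median green fluorescence of retained JC-1 dye; potency of efflux pump inhibition measured as rising substrate retention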
[17] = target: Macrophage-stimulating protein receptor (Homo sapiens, UniProt Q04912); assay: Navigating the Kinome. Panel member name: MST1R; assay type: functional
[18] = target: Dual specificity tyrosine-phosphorylation-regulated kinase 1B (Homo sapiens, UniProt Q9Y463); assay: Navigating the Kinome. Panel member name: DYRK1B; assay type: functional
[19] = target: LIM domain kinase 1 (Homo sapiens, UniProt P53667); assay: Navigating the Kinome. Panel member name: LIMK1; assay type: functional
[20] = target: ALK tyrosine kinase receptor (Homo sapiens, UniProt Q9UM73); assay type: functional;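 note: ALK tested as one member of a kinase panel screen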
[21] = target: T8, Corticotropin-releasing factor receptor 2/Corticotropin-releasing factor-binding protein (Homo sapiens, UniProt P24387+Q13324); assay: activators of CRF receptor 2 with binding protein – uHTS hits, confirmation (AID 602473); assay type: functional; conditions: read-out: EC50_Mean
T8 sequence (Q13324 whole entry): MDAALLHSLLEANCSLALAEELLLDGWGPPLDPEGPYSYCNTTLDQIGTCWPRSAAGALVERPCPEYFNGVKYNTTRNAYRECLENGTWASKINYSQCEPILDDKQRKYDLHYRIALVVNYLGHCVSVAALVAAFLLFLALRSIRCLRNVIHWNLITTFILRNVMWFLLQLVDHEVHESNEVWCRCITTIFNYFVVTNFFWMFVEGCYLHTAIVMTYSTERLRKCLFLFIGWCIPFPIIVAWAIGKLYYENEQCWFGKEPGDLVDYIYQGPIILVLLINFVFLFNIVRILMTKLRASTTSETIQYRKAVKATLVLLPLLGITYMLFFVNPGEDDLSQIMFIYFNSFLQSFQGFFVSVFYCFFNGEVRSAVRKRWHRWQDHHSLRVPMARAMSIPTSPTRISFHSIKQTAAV
T8 sequence (P24387 whole entry): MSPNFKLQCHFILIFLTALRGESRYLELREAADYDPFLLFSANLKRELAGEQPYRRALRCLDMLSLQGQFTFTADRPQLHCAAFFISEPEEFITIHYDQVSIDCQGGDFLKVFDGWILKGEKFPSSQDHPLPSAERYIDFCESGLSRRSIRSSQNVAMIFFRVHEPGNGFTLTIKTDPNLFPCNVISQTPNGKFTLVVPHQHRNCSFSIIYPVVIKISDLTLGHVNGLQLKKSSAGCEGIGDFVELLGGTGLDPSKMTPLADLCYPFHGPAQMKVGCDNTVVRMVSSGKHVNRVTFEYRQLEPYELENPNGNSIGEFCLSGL

[22] = CRF-BP/CRF-R2 complex antagonists, dose response, cell-based, uHTS hits, 384-well (AID 651639); assay type: functional, Homo sapiens; conditions: read-out: IC50_Mean
[23] = target: T8, Corticotropin-releasing factor receptor 2/Corticotropin-releasing factor-binding protein; assay: Dose Response confirmation of uHTS hits for small molecule antagonists of the CRF-binding protein and CRF-R2 receptor complex.; assay type: functional; conditions: read-out: IC50_Mean

T2 sequence (P11940 whole entry): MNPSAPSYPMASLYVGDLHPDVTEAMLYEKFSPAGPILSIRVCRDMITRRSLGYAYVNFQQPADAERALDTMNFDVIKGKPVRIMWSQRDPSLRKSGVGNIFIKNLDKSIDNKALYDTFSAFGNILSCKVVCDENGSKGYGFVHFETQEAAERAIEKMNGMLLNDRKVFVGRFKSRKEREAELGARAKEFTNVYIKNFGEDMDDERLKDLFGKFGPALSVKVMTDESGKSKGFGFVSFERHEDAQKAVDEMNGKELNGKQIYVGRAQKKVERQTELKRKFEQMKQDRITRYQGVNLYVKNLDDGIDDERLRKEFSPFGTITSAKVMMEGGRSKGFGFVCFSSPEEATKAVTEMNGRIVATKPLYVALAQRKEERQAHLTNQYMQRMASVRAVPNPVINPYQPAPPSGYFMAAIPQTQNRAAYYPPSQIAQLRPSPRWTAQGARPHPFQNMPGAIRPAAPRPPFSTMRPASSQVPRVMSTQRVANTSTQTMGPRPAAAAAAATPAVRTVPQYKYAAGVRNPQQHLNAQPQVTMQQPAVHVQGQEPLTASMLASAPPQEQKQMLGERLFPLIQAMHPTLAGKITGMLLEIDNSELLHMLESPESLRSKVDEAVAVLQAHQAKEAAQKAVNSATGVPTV
T5 sequence (Q00975 whole entry, the tested form may be a part): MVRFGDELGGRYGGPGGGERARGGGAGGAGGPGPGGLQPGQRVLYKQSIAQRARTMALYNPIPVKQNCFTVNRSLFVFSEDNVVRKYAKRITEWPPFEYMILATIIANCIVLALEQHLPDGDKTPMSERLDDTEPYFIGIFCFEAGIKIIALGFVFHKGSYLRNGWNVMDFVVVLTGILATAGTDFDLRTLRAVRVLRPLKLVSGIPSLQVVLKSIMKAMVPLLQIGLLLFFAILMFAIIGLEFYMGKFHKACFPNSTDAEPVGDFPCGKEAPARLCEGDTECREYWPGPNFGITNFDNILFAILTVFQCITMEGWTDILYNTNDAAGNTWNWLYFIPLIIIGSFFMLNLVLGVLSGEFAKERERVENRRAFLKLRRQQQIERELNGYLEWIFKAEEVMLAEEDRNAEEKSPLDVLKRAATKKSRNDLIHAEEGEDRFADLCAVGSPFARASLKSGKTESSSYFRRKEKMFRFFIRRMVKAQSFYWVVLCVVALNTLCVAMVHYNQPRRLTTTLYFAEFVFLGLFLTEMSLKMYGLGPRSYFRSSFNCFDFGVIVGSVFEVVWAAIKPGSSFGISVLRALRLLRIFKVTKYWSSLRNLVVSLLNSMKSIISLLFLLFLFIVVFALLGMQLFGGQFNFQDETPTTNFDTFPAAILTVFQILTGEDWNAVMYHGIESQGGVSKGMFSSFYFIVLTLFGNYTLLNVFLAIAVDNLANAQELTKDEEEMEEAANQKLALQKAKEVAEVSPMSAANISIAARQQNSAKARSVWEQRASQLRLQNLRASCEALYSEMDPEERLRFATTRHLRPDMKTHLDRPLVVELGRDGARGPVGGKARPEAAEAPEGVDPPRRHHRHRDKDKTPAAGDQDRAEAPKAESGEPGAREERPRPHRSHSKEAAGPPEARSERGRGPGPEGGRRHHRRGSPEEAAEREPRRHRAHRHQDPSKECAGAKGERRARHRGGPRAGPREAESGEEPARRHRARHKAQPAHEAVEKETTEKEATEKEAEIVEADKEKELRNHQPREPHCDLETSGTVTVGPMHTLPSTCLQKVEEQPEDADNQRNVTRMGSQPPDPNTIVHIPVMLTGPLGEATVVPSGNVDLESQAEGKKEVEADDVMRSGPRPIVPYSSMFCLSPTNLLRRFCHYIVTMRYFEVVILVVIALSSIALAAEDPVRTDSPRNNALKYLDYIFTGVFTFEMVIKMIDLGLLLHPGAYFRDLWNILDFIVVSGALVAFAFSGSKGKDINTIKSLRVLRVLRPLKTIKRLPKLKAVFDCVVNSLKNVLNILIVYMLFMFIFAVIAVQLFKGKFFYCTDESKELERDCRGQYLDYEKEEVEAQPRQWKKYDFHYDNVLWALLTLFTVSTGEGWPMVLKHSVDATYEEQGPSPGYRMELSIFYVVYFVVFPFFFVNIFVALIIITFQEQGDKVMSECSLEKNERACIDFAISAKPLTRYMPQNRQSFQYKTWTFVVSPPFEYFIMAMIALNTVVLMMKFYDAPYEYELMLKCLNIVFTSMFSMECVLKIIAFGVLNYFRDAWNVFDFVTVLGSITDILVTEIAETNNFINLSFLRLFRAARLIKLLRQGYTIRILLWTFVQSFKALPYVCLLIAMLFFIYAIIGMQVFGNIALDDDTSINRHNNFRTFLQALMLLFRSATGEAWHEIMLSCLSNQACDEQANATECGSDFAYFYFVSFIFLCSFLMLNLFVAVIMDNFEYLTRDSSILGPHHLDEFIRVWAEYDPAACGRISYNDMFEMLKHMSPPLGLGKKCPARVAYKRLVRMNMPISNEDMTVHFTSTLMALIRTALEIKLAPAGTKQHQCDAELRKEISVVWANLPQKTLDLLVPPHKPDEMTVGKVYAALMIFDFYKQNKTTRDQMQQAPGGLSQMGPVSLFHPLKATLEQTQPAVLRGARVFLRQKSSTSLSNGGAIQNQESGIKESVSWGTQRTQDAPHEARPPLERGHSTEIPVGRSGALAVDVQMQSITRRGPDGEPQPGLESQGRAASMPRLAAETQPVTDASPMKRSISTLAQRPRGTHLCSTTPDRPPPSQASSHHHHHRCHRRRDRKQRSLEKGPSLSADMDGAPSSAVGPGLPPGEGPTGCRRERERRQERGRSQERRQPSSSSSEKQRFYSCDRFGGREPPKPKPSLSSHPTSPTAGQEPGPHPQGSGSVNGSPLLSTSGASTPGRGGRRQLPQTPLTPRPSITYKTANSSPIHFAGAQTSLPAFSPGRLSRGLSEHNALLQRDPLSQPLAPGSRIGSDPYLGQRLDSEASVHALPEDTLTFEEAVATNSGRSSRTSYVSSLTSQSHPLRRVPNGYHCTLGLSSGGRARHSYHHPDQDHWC
T5 sequence (Q02410 whole entry, the tested form may be a part): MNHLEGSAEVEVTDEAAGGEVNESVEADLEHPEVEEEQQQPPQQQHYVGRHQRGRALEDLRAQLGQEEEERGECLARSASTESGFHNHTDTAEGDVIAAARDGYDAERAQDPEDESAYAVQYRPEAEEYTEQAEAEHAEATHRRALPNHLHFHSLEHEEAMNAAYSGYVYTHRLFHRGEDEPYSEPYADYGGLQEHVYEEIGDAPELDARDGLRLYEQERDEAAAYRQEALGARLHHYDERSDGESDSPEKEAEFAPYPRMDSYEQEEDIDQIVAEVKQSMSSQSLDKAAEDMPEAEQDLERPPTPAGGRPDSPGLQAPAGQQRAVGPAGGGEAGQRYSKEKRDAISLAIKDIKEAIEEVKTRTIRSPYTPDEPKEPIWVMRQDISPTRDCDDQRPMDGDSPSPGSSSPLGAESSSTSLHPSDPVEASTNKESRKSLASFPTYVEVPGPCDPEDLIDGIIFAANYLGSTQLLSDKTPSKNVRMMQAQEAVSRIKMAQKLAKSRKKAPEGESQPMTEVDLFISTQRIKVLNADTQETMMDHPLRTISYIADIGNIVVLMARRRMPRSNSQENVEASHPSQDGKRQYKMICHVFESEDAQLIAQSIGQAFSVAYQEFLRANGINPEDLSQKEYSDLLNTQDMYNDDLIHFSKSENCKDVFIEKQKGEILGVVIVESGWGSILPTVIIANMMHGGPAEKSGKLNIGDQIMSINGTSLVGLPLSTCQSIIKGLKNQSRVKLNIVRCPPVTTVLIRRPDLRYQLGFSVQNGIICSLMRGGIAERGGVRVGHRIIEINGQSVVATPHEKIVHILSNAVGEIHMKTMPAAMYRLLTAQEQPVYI
T7 sequence (P08183 whole entry): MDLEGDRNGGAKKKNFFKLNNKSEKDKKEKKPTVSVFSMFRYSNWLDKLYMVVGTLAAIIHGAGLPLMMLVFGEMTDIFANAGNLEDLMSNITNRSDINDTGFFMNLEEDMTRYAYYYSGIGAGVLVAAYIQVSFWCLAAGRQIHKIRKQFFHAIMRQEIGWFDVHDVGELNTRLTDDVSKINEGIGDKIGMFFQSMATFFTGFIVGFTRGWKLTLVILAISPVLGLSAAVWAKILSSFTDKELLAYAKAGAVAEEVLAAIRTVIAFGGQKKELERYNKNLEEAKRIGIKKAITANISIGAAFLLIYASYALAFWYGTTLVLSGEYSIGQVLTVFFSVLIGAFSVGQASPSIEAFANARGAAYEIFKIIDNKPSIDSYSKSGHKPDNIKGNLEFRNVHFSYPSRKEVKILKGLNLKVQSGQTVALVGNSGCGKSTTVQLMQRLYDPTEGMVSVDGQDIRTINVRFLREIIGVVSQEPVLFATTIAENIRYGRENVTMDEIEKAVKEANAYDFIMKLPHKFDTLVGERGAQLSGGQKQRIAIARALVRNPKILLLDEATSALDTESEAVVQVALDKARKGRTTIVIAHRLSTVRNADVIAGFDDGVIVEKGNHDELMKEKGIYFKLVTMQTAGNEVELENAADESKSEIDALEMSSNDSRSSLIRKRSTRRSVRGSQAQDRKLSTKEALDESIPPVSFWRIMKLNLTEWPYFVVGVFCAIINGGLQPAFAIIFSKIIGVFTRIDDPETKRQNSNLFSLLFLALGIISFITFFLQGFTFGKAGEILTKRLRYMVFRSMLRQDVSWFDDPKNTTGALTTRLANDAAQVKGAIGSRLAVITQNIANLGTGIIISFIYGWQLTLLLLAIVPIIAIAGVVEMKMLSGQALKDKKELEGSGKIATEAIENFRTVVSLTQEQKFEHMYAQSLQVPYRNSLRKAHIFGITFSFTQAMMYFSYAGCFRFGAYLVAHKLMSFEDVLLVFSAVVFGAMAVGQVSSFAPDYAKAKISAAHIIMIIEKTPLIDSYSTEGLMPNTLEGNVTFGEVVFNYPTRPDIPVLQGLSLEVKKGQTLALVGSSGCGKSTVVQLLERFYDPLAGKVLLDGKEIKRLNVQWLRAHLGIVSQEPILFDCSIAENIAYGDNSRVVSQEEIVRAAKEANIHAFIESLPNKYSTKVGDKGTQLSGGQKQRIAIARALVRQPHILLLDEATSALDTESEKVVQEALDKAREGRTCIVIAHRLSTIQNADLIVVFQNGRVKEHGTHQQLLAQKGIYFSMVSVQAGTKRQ

EC50 [1]: > 89.2 µM (inactive)
SMILES: O=C(NC(c1ccccc1)c1ccsc1)C1CCN(CCOc2ccc(Cl)cc2Cl)CC1 (centres undefined)

SMILES: O=C(NC(=S)Nc1cccc2cccnc12)c1cccs1
IC50 [2]: > 66.2 µM (inactive) | IC50 [3]: > 49.7 µM (inactive) | IC50 [4]: > 50 µM (inactive) | IC50 [5]: > 66 µM (inactive) | IC50 [6]: > 0.00331 µM (active) | IC50 [7]: > 5.52 µM (active) | IC50 [8]: > 88.8 µM (inactive) | IC50 [9]: > 66 µM (inactive)

IC50 [10]: 1.45 µM (active) | AC50 [11]: 17.9 µM (active) | IC50 [12]: > 50 µM (inactive) | IC50 [13]: 0.408 µM (active) | IC50 [14]: 1.84 µM (active)
SMILES: C=C(C)C(=O)Nc1cccc(C2=NOC3(C2)C[C@@H](C(N)=O)N(C(=O)C2(C)CC2)C3)c1 (some centres undefined)

SMILES: Cc1ccc(N(C)S(=O)(=O)c2cccc(C(=O)NCC(c3cccs3)N3CCOCC3)c2)cc1 (centres undefined)
IC50 [2]: > 66.2 µM (inactive) | IC50 [3]: > 49.8 µM (inactive) | IC50 [4]: 3.35 µM (active) | IC50 [6]: 0.715 µM (active) | IC50 [7]: 12 µM (inactive) | IC50 [8]: > 88.8 µM (inactive)

EC50 [15]: 6 µM (active) | EC50 [16]: 1.98 µM (active)
SMILES: O=C(c1ccoc1)N1CCCN(c2cc(-c3ccccc3)nc3cc(-c4cccc(Cl)c4)nn23)CC1

Ki [17]: 3.16 µM (active) | Ki [18]: 2 µM (active) | Ki [19]: 0.631 µM (active) | Ki [20]: 1.58 µM (active)
SMILES: Nc1ccc2cc(NCCc3ccccc3)cc(Nc3ncccn3)c2n1

EC50 [21]: > 53 µM (inactive) | IC50 [22]: 19.8 µM (active) | IC50 [23]: 2.98 µM (active)
SMILES: CCCCNC(=O)CCn1c(=O)c2ccccc2n(Cc2ccccc2C)c1=O

— ChEMBL document CHEMBL1201862, “PubChem BioAssay data set” (2004)
